# Data taken from patent US12157730B2, “Heteroaryl derivative, method for producing same, and pharmaceutical composition comprising same as effective component” (VORONOI INC., priority 2019, dated 2024).
# Molecular target: T1, Ba/F3 cell EGFR Exon20 ins NPH (Homo sapiens, UniProt P00533, INS773NPH)
# T1 construct: expressed in transfected cells; host or cells: Ba/F3
# Experiment: Ba/F3 cell proliferation suppression, EGFR Exon20 ins NPH
# Assay type: cell-based
# Settings: GI50 class; Ba/F3 cell line with NPH inserted at Exon20 of EGFR; 72 hours
# Method in brief: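 Seed 3000–5000 cells/well; after 24 h add compound (12 conc., 0.3 nM–50 um final); incubate 72 h; add CellTiter-Glo, 10 min room temperature; read luminescence; GI50 from % growth vs control, triplicate.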
row,Ba/F3 (NPH) Activity,SMILES
1,A (GI50 < 50 nM),"C=CC(=O)Nc1cc(Nc2cc(N3OCC[C@@H]3Cc3cccc(Cl)c3F)ncn2)c(OC)cc1N1CCC(N2C[C@@H]3C[C@H]2CO3)CC1 [compound 1022, N-(2-(4-((1S,4S)-2-oxa-5-azabicyclo [2.2.1]heptane-5-yl)piperidine-1-yl)-5-((6-((S)-3-(3-chloro-2-fluorobenzyl)isoxazolidine-2-yl)pyrimidine-4-yl)amino)-4-methoxyphenyl) acrylamide]"
2,A (GI50 < 50 nM),"C=CC(=O)Nc1cc(Nc2cc(N3OCC[C@@H]3c3cccc(C)c3F)ncn2)c(OC)cc1N1CCN(C)CC1 [compound 845, N-(5-((6-((R)-3-(2-fluoro-3-methylphenyl)isoxazolidine-2-yl)pyrimidine-4-yl)amino)-4-methoxy-2-(4-methylpiperazine-1-yl)phenyl)acrylamide]"
3,B (50 nM ≤ GI50 < 500 nM),"C=CC(=O)Nc1cc(Nc2cc(N3OCC[C@@H]3c3ccc(F)c(Cl)c3F)ncn2)c(OC)cc1N1C[C@@H](C)O[C@@H](C)C1 [compound 667, N-(5-((6-((R)-3-(3-chloro-2,4-difluorophenyl)isoxazolidine-2-yl)pyrimidine-4-yl)amino)-2-((2S,6R)-2,6-dimethylmorpholino)-4-methoxyphenyl) acrylamide]"
4,B (50 nM ≤ GI50 < 500 nM),"C=CC(=O)Nc1cc(Nc2cc(N3OCC[C@@H]3c3cc(F)cc(F)c3)ncn2)c(OC)cc1N1CCC(N2CCO[C@H](C)C2)CC1 [compound 758, N-(5-((6-((R)-3-(3,5-difluorophenyl)isoxazolidine-2-yl)pyrimidine-4-yl)amino)-4-methoxy-2-(4-((R)-2-methylmorpholino)piperidine-1-yl)phenyl) acrylamide]"
5,A (GI50 < 50 nM),"C=CC(=O)Nc1cc(Nc2cc(N3OCC[C@@H]3c3cccc(C)c3F)ncn2)c(OC)cc1N1CCN(C2COC2)CC1 [compound 908, N-(5-((6-((R)-3-(2-fluoro-3-methylphenyl)isoxazolidine-2-yl)pyrimidine-4-yl)amino)-4-methoxy-2-(4-(oxetane-3-yl)piperazine-1-yl)phenyl) acrylamide]"
6,C (500 nM ≤ GI50 < 5000 nM),"C=CC(=O)Nc1cc(Nc2cc(N3OCC[C@H]3Cc3ccccc3)ncn2)c(OC)cc1N1CCN(C2CCOCC2)CC1 [compound 975, N-(5-((6-((R)-3-benzylisoxazolidine-2-yl)pyrimidine-4-yl)amino)-4-methoxy-2-(4-(tetrahydro-2H-pyran-4-yl)piperazine-1-yl)phenyl)acrylamide]"
7,B (50 nM ≤ GI50 < 500 nM),"C=CC(=O)Nc1cc(Nc2cc(N3OCC[C@@H]3c3ccc4ccccc4c3)ncn2)c(OC)cc1N1CCC(N2CCN(CC)CC2)CC1 [compound 515, N-(2-(4-(4-ethylpiperazine-1-yl)piperidine-1-yl)-4-methoxy-5-((6-((R)-3-(naphthalene-2-yl)isoxazolidine-2-yl)pyrimidine-4-yl)amino)phenyl)acrylamide]"
8,C (500 nM ≤ GI50 < 5000 nM),"C=CC(=O)Nc1cc(Nc2cc(N3OCC[C@H]3c3c(F)cccc3F)ncn2)c(OC)cc1N1CCC(N2CCN(C)CC2)CC1 [compound 896, N-(5-((6-((S)-3-(2,6-difluorophenyl)isoxazolidine-2-yl)pyrimidine-4-yl)amino)-4-methoxy-2-(4-(4-methylpiperazine-1-yl)piperidine-1-yl)phenyl)acrylamide]"
9,B (50 nM ≤ GI50 < 500 nM),"C=CC(=O)Nc1cc(Nc2cc(N3OCC[C@@H]3c3cccc(C(F)(F)F)c3)ncn2)c(OC)cc1N1CCN(C2CC2)CC1 [compound 940, N-(2-(4-cyclopropylpiperazine-1-yl)-4-methoxy-5-((6-((R)-3-(3-(trifluoromethyl)pheyyl)isoxazolidine-2-yl)pyrimidine-4-yl)amino)phenyl) acrylamide]"
10,C (500 nM ≤ GI50 < 5000 nM),"C=CC(=O)Nc1cc(Nc2cc(N3OCC[C@H]3Cc3ccccc3)ncn2)c(OC)cc1N1CCN(C)CC1 [compound 968, N-(5-((6-((R)-3-benzylisoxazolidine-2-yl)pyrimidine-4-yl)amino)-4-methoxy-2-(4-methylpiperazine-1-yl)phenyl)acrylamide]"
11,A (GI50 < 50 nM),"C=CC(=O)Nc1cc(Nc2cc(N3OCC[C@@H]3c3cccc(C)c3F)ncn2)c(OC)cc1N(C)CCN(C)C [compound 846, N-(2-((2-(dimethylamino)ethyl) (methyl)amino)-5-((6-((R)-3-(2-fluoro-3-methylphenyl)isoxazolidine-2-yl)pyrimidine-4-yl)amino)-4-methoxyphenyl) acrylamide]"
12,A (GI50 < 50 nM),"C=CC(=O)Nc1cc(Nc2cc(N3OCC[C@@H]3c3cccc(F)c3)ncn2)c(OC)cc1N1CCC(N2CCN(C(C)=O)CC2)CC1 [compound 741, N-(2-(4-(4-acetylpiperazine-1-yl)piperidine-1-yl)-5-((6-((R)-3-(3-fluorophenyl)isoxazolidine-2-yl)pyrimidine-4-yl)amino)-4-methoxyphenyl) acrylamide]"

# The remaining lines, values behind:
row,SMILES,Ba/F3 (NPH) Activity
1,"C=CC(=O)Nc1cc(Nc2cc(N3OCC[C@@H]3c3cc(F)cc(F)c3)ncn2)c(OC)cc1N1CCC(N2C[C@@H](C)N(C3CC3)C[C@@H]2C)CC1 [Example 108, N-(2-(4-((2S,5R)-4-cyclopropyl-2,5-dimethylpiperazine-1-yl)piperidine-1-yl)-5-((6-((R)-3-(3,5-difluorophenyl)isoxazolidine-2-yl)pyrimidine-4-yl)amino)-4-methoxyphenyl) acrylamide]",A (GI50 < 50 nM)
2,"C=CC(=O)Nc1cc(Nc2cc(N3OCC[C@@H]3c3cccc(Cl)c3)ncn2)c(OC)cc1N1CCC(N2C[C@H]3C[C@@H]2CO3)CC1 [compound 472, N-(2-(4-((1R,4R)-2-oxa-5-azabicyclo[2.2.1]heptane-5-yl)piperidine-1-yl)-5-((6-((R)-3-(3-chlorophenyl)isoxazolidine-2-yl)pyrimidine-4-yl)amino)-4-methoxyphenyl) acrylamide]",A (GI50 < 50 nM)
3,"C=CC(=O)Nc1cc(Nc2cc(N3OCC[C@@H]3c3cccc(F)c3F)ncn2)c(OC)cc1N1CCC(N2CCN(C3CC3)[C@H](C)C2)CC1 [Example 176, N-(2-(4-((R)-4-cyclopropyl-3-methylpiperazine-1-yl)piperidine-1-yl)-5-((6-((R)-3-(2,3-difluorophenyl)isoxazolidine-2-yl)pyrimidine-4-yl)amino)-4-methoxyphenyl) acrylamide]",A (GI50 < 50 nM)
4,"C=CC(=O)Nc1cc(Nc2cc(N3OCC[C@@H]3c3ccc(F)cc3F)ncn2)c(OC)cc1N(C)CCOC [compound 347, N-(5-((6-((R)-3-(2,4-difluorophenyl)isoxazolidine-2-yl)pyrimidine-4-yl)amino)-4-methoxy-2-((2-methoxyethyl)(methyl)amino)phenyl) acrylamide]",A (GI50 < 50 nM)
5,"C=CC(=O)Nc1cc(Nc2cc(N3OCC[C@@H]3c3ccc(Cl)c(Cl)c3F)ncn2)c(OC)cc1N1CCC(N2CCN(C3COC3)CC2)CC1 [Example 84, N-(5-((6-((R)-3-(3,4-dichloro-2-fluorophenyl)isoxazolidine-2-yl)pyrimidine-4-yl)amino)-4-methoxy-2-(4-(4-(oxetane-3-yl)piperazine-1-yl)piperidine-1-yl)phenyl)acrylamide]",B (50 nM ≤ GI50 < 500 nM)
6,"C=CC(=O)Nc1cc(Nc2cc(N3OCC[C@@H]3c3cccc(C#N)c3)ncn2)c(OC)cc1N1CCC(N2CC[C@H](N(C)C)C2)CC1 [compound 435, N-(5-((6-((R)-3-(3-cyanophenyl)isoxazolidine-2-yl)pyrimidine-4-yl)amino)-2-(4-((S)-3-(dimethylamino)pyrolidine-1-yl)piperidine-1-yl)-4-methoxyphenyl) acrylamide]",B (50 nM ≤ GI50 < 500 nM)
7,"C=CC(=O)Nc1cc(Nc2cc(N3OCC[C@@H]3c3ccccc3)ncn2)c(OC)cc1N1C2CC1CN(C)C2 [Example 35, N-(4-methoxy-2-(3-methyl-3,6-diazabicyclo[3.1.1]heptane-6-yl)-5-((6-((R)-3-phenylisoxazolidine-2-yl)pyrimidine-4-yl)amino)phenyl) acrylamide]",B (50 nM ≤ GI50 < 500 nM)
8,"C=CC(=O)Nc1cc(Nc2cc(N3OCC[C@@H]3c3cccc(F)c3)ncn2)c(OC)cc1N1CC[C@@H](N2CCOCC2)C1 [compound 323, N-(5-((6-((R)-3-(3-fluorophenyl)isoxazolidine-2-yl)pyrimidine-4-yl)amino)-4-methoxy-2-((R)-3-morpholinopyrolidine-1-yl)phenyl) acrylamide]",A (GI50 < 50 nM)
9,"C=CC(=O)Nc1cc(Nc2cc(N3OCC[C@@H]3c3cccc(Cl)c3)ncn2)c(OC)cc1N1CCC(N2CC[C@H](N(C)C)C2)CC1 [compound 508, N-(5-((6-((R)-3-(3-chlorophenyl)isoxazolidine-2-yl)pyrimidine-4-yl)amino)-2-(4-((S)-3-(dimethylamino)pyrolidine-1-yl)piperidine-1-yl)-4-methoxyphenyl) acrylamide]",A (GI50 < 50 nM)
10,"C=CC(=O)Nc1cc(Nc2cc(N3OCC[C@@H]3c3cccc(Cl)c3F)ncn2)c(OC)cc1N1CCC(N2CCO[C@H](C)C2)CC1 [compound 357, N-(5-((6-((R)-3-(3-chloro-2-fluorophenyl)isoxazolidine-2-yl)pyrimidine-4-yl)amino)-4-methoxy-2-(4-((R)-2-methylmorpholino)piperidine-1-yl)phenyl) acrylamide]",A (GI50 < 50 nM)
11,"C=CC(=O)Nc1cc(Nc2cc(N3OCC[C@@H]3c3cccc(OC)c3)ncn2)c(OC)cc1N1CCC(N2CCN(C)CC2)CC1 [Example 40, N-(4-methoxy-5-((6-((R)-3-(3-methoxyphenyl)isoxazolidine-2-yl)pyrimidine-4-yl)amino)-2-(4-(4-methylpiperazine-1-yl)piperidine-1-yl)phenyl) acrylamide]",B (50 nM ≤ GI50 < 500 nM)
